# Tests used:
# Test in all cases: relative viability (nuclei count vs DMSO), 5 days (fraction); higher = more cells survive
# MLN4924 = compound: NS(=O)(=O)OC[C@@H]1C[C@@H](n2ccc3c(N[C@H]4CCc5ccccc54)ncnc32)C[C@@H]1O [MLN4924]
# Method in brief: (§1)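 In 1536-well plates, lung cancer cell lines rested overnight at 37 °C before five library-drug doses (not always all listed), √10 apart, were pinned onto vehicle-anchored plates. Nuclei were counted with MetaXpress from 4× Hoechst images taken after 5 days without medium change. Viability compares treated-well with vehicle-well nuclei as a median over plates, and plates needed control CV below 25% plus at least one doubling to pass.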
# Carboplatin = compound: C1CC(C1)(C(=O)O)C(=O)O.[NH2-].[NH2-].[Pt+2] [Carboplatin]
# Method in brief: as §1
# GSK126 = compound: CC[C@H](C)N1C=C(C2=C(C=C(C=C21)C3=CN=C(C=C3)N4CCNCC4)C(=O)NCC5=C(C=C(NC5=O)C)C)C [GSK126]
# Method in brief: as §1
Cell Line,relative viability (MLN4924; 0.04 µM),relative viability (MLN4924; 0.1265 µM),relative viability (MLN4924; 0.4 µM),relative viability (MLN4924; 1.265 µM),relative viability (MLN4924; 4 µM),relative viability (Carboplatin; 0.08 µM),relative viability (Carboplatin; 0.253 µM),relative viability (Carboplatin; 0.8 µM),relative viability (Carboplatin; 2.53 µM),relative viability (Carboplatin; 8 µM),relative viability (GSK126; 0.08 µM),relative viability (GSK126; 0.253 µM),relative viability (GSK126; 0.8 µM),relative viability (GSK126; 2.53 µM),relative viability (GSK126; 8 µM)
SW 900,0.68,0.825,0.384,0.21,0.184,0.808,0.774,0.822,0.837,0.68,0.844,0.853,0.788,0.896,0.892
NCI-H2342,1.18,0.931,0.97,0.788,0.57,1.06,0.987,1.07,1.02,0.873,1.12,1.04,1.07,1.05,1.17
NCI-H441,0.943,0.822,0.512,0.148,0.185,0.957,1.08,0.925,1,0.801,1.23,0.954,0.986,1.05,0.995
NCI-H3122,0.92,0.585,0.325,0.139,0.135,1.01,1.01,1.02,1.01,0.968,1.03,1,0.966,1.02,1
HCC-78,0.968,0.771,0.849,0.323,0.265,1.09,0.982,1.02,0.927,0.905,0.984,1.06,1,0.976,0.904
HCC-827,0.972,0.852,0.704,0.253,0.183,1.09,1.01,1.01,1.01,0.983,1.05,1.06,1.01,1.01,0.993
Calu-6,0.914,0.653,0.24,0.141,0.134,1.01,1.03,0.973,0.851,0.491,1.1,1.05,0.954,1.07,1.03
NCI-H2009,0.823,0.439,0.287,0.136,0.0977,1.05,0.971,0.95,0.951,0.683,1.12,0.997,0.988,0.988,1.06
NCI-H322M,1.26,1.3,0.684,0.273,0.35,1.1,0.918,0.984,0.969,0.931,0.925,0.959,0.992,1.09,0.968
NCI-H23,0.815,0.721,0.462,0.204,0.206,1.13,1.01,0.991,1.02,0.792,1.03,0.949,1.02,1.18,1.21
NCI-H1648,0.635,0.448,0.329,0.246,0.32,1.13,0.878,0.871,0.6,0.813,0.932,0.783,1.07,1.2,0.725
NCI-H358,1.02,0.904,0.327,0.201,0.213,1.25,1.07,1.06,0.891,0.928,1.07,0.965,0.914,1.05,1.01
NCI-H1944,0.975,0.788,0.583,0.176,0.176,0.887,0.967,0.922,0.981,0.644,1.1,0.902,1,0.998,1.13
NCI-H1755,0.954,0.905,0.547,0.255,0.198,1.05,1.03,1.04,1,0.966,1.04,1.06,0.978,1,1.06
A-427,0.515,0.44,0.31,0.218,0.234,1.07,1,1,1.07,1.01,1.09,1.02,0.97,1.09,1.07
SW 1573,1.16,0.954,0.332,0.0817,0.0856,1.05,1.02,0.992,0.972,0.702,1.21,1.08,1.02,1.05,1.24
PC-14,1.04,0.93,0.624,0.153,0.111,1.09,0.998,0.997,0.684,0.309,1.02,1.01,0.935,1.03,0.942
LOU-NH91,0.997,1.13,0.929,0.543,0.563,1.16,0.938,0.96,0.969,0.936,0.966,0.978,0.95,1.06,0.985

# — the supplement of paper PMC10307832
